Earlier results in PMC9516332 (Frontiers in Oncology, 2022).
Where two headings read alike, the source gives them in different places.

How the values were obtained:
Settings in all cases: cited from earlier work
[1] = target: panel of 255 wild-type kinases (Homo sapiens, UniProt P11362)
[2] = target: panel of 255 wild-type kinases (Homo sapiens, UniProt P45984)
[3] = target: panel of 255 wild-type kinases (Homo sapiens, UniProt Q9BYP7)
[4] = target: panel of 255 wild-type kinases (Homo sapiens, UniProt P05129)
[5] = target: T1, panel of 255 wild-type kinases (Homo sapiens, UniProt Q96KB5)
T1 sequence (Q96KB5 1-322): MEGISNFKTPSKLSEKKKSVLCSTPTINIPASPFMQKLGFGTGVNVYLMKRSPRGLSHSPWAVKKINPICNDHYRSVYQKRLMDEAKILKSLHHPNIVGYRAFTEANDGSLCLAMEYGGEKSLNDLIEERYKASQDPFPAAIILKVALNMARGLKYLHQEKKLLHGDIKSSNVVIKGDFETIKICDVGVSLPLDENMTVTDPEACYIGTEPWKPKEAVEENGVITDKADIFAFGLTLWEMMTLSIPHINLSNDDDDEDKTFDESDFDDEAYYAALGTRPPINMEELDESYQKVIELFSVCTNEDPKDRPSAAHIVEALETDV

[6] = target: T2, panel of 255 wild-type kinases (Homo sapiens, UniProt Q9H093)
T2 sequence (Q9H093 1-628): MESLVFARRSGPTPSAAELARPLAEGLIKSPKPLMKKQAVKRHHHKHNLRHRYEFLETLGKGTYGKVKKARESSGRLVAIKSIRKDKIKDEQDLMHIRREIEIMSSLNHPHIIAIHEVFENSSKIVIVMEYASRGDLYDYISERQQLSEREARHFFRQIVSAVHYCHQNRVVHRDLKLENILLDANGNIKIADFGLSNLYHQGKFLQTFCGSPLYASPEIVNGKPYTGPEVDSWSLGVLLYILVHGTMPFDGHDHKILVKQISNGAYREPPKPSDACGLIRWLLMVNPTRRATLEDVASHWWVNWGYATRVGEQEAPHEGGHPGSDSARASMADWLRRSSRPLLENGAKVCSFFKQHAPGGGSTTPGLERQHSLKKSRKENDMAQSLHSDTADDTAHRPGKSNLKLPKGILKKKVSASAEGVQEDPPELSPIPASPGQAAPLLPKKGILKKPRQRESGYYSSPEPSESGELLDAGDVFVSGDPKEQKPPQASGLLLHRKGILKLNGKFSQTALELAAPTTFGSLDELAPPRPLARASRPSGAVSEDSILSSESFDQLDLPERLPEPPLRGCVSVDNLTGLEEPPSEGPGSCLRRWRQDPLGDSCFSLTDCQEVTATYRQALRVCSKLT

[7] = target: panel of 255 wild-type kinases (Homo sapiens, UniProt Q16816)
[8] = target: panel of 255 wild-type kinases (Homo sapiens, UniProt P48729)
[9] = target: T3, panel of 255 wild-type kinases (Homo sapiens, UniProt P41743)
T3 sequence (P41743 1-596): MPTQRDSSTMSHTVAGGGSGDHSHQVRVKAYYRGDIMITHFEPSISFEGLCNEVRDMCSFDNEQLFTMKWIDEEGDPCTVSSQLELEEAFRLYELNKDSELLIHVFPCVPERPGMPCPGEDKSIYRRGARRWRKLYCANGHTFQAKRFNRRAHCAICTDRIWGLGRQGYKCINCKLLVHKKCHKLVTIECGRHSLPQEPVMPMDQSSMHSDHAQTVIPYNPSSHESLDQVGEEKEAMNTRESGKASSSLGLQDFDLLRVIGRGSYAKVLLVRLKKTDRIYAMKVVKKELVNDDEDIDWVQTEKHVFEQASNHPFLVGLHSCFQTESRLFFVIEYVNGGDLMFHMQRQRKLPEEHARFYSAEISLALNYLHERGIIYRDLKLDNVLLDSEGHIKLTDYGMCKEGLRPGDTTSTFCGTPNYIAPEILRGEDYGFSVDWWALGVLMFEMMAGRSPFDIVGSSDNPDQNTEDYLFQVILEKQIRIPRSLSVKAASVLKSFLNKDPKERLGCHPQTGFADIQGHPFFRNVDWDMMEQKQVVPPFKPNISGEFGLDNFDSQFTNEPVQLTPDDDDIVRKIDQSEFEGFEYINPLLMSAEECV

[10] = target: panel of 255 wild-type kinases (Homo sapiens, UniProt O75582)
[11] = target: panel of 255 wild-type kinases (Homo sapiens, UniProt Q05655)
[12] = target: panel of 255 wild-type kinases (Homo sapiens, UniProt Q96RG2)
[13] = kinase FGFR1, 1 µmol/L single concentration, ref DOI: 10.1158/1535-7163.MCT-18-0877
[14] = kinase JNK2, 1 µmol/L single concentration, ref DOI: 10.1158/1535-7163.MCT-18-0877
[15] = kinase WNK3, 1 µmol/L single concentration, ref DOI: 10.1158/1535-7163.MCT-18-0877
[16] = kinase PKCγ, 1 µmol/L single concentration, ref DOI: 10.1158/1535-7163.MCT-18-0877
[17] = kinase PBK, 1 µmol/L single concentration, ref DOI: 10.1158/1535-7163.MCT-18-0877
[18] = NuaK2, 1 µmol/L single concentration, ref DOI: 10.1158/1535-7163.MCT-18-0877
[19] = kinase PHKG1, 1 µmol/L single concentration, ref DOI: 10.1158/1535-7163.MCT-18-0877
[20] = kinase CK1α, 1 µmol/L single concentration, ref DOI: 10.1158/1535-7163.MCT-18-0877
[21] = kinase PKCι, 1 µmol/L single concentration, ref DOI: 10.1158/1535-7163.MCT-18-0877
[22] = MSK1, 1 µmol/L single concentration, ref DOI: 10.1158/1535-7163.MCT-18-0877
[23] = kinase PKCδ, 1 µmol/L single concentration, ref DOI: 10.1158/1535-7163.MCT-18-0877
[24] = PASK, 1 µmol/L single concentration, ref DOI: 10.1158/1535-7163.MCT-18-0877

| Compound | %-inhibition at 1 µmol/L, FGFR1 [1, 13] | %-inhibition at 1 µmol/L, JNK2 [2, 14] | %-inhibition at 1 µmol/L, WNK3 [3, 15] | %-inhibition at 1 µmol/L, PKCγ [4, 16] | %-inhibition at 1 µmol/L, PBK [5, 17] | %-inhibition, NuaK2 [6, 18] | %-inhibition at 1 µmol/L, PHKG1 [7, 19] | %-inhibition at 1 µmol/L, CK1α [8, 20] | %-inhibition at 1 µmol/L, PKCι [9, 21] | %-inhibition, MSK1 [10, 22] | %-inhibition at 1 µmol/L, PKCδ [11, 23] | %-inhibition, PASK [12, 24] | %-inhibition, MSK1 [10] | also measured |
| --- | --- | --- | --- | --- | --- | --- | --- | --- | --- | --- | --- | --- | --- | --- |
| CC#CC(=O)N1CCC[C@H]1c1nc(-c2ccc(C(=O)Nc3ccccn3)cc2)c2c(N)nccn12 [acalabrutinib] | -2.28% | -1.85% | -0.259% | -7.43% | -15% | 3% | -4% | 10% | -8% | -8% | -9% | -5.37% |  |  |
| CCc1cc2c(cc1N1CCC(N3CCOCC3)CC1)C(C)(C)c1[nH]c3cc(C#N)ccc3c1C2=O [alectinib] | 5.37% | -0.468% | 0.437% | 0.135% | -2.63% | -1.06% | 78% | 22% | 11% | 0.0374% | 1.83% | -2.6% |  |  |
| COc1cc(N2CCC(N3CCN(C)CC3)CC2)ccc1Nc1ncc(Cl)c(Nc2ccccc2P(C)(C)=O)n1 [brigatinib] |  |  |  |  |  |  |  |  |  |  |  |  | 23% | %-inhibition at 1 µmol/L, FGFR1 [1]: 95%; %-inhibition at 1 µmol/L, JNK2 [2]: 50%; %-inhibition at 1 µmol/L, WNK3 [3]: 1%; %-inhibition at 1 µmol/L, PKCγ [4]: 11%; %-inhibition at 1 µmol/L, PBK [5]: 1.09%; %-inhibition, NuaK2 [6]: 98%; %-inhibition at 1 µmol/L, PHKG1 [7]: 96%; %-inhibition at 1 µmol/L, CK1α [8]: 11%; %-inhibition at 1 µmol/L, PKCι [9]: -38%; %-inhibition at 1 µmol/L, PKCδ [11]: 34%; %-inhibition, PASK [12]: -5% |
| Cc1cc(Nc2ncc(Cl)c(Nc3ccccc3S(=O)(=O)C(C)C)n2)c(OC(C)C)cc1C1CCNCC1 [ceritinib] | 11% | 16% | 0.598% | -1.46% | -11% | 43% | 91% | 7% | 25% | -1.09% | 5% | 1.28% |  |  |
| O=C(c1ccc(F)c(F)c1Nc1ccc(I)cc1F)N1CC(O)([C@@H]2CCCCN2)C1 [cobimetinib] | -1.33% | -2.51% | 1.84% | -1.52% | 76% | -10% | 3% | 2% | 2.45% | -3% | -2.12% | 1.07% |  |  |
| C[C@@H](Oc1cc(-c2cnn(C3CCNCC3)c2)cnc1N)c1c(Cl)ccc(F)c1Cl [crizotinib] |  |  |  |  |  |  |  |  |  |  |  |  | -0.641% | %-inhibition at 1 µmol/L, FGFR1 ([1]; kinase FGFR1, 1 µmol/L single concentration, ref DOI: 10.1371/journal.pone.0092146): 17%; %-inhibition at 1 µmol/L, JNK2 ([2]; kinase JNK2, 1 µmol/L single concentration, ref DOI: 10.1371/journal.pone.0092146): -2.59%; %-inhibition at 1 µmol/L, WNK3 ([3]; kinase WNK3, 1 µmol/L single concentration, ref DOI: 10.1371/journal.pone.0092146): -8%; %-inhibition at 1 µmol/L, PKCγ ([4]; kinase PKCγ, 1 µmol/L single concentration, ref DOI: 10.1371/journal.pone.0092146): -0.662%; %-inhibition at 1 µmol/L, PBK ([5]; kinase PBK, 1 µmol/L single concentration, ref DOI: 10.1371/journal.pone.0092146): -14%; %-inhibition, NuaK2 ([6]; NuaK2, 1 µmol/L single concentration, ref DOI: 10.1371/journal.pone.0092146): 87%; %-inhibition at 1 µmol/L, PHKG1 ([7]; kinase PHKG1, 1 µmol/L single concentration, ref DOI: 10.1371/journal.pone.0092146): 2.74%; %-inhibition at 1 µmol/L, CK1α ([8]; kinase CK1α, 1 µmol/L single concentration, ref DOI: 10.1371/journal.pone.0092146): -1.36%; %-inhibition at 1 µmol/L, PKCι ([9]; kinase PKCι, 1 µmol/L single concentration, ref DOI: 10.1371/journal.pone.0092146): -5%; %-inhibition at 1 µmol/L, PKCδ ([11]; kinase PKCδ, 1 µmol/L single concentration, ref DOI: 10.1371/journal.pone.0092146): -1.14%; %-inhibition, PASK ([12]; PASK, 1 µmol/L single concentration, ref DOI: 10.1371/journal.pone.0092146): 1% |
